Key:
[1] = instrument: TW, calibrated with phosphatidylcholines (ESI+) and phosphatidylethanolamines (ESI-), doubly charged cardiolipins calibrated with poly-DL-…
[2] = instrument: DT, stepped-field
[3] = [M+H]+; instrument: TW

Row | SMILES | collision cross section (N2) ([1]; [M-H]-) | collision cross section (N2) [3] | further results
1 | CCCCCCCCCCCCCCC(=O)OC[C@@H](O)COP(=O)([O-])OCC[NH3+] [LPE(15:0/0:0)] | 202.83 Å² | – | collision cross section (N2) ([1]; [M+H]+): 209.91 Å²; collision cross section (N2) ([1]; [M+Na]+): 216.13 Å²
2 | CCCCCCCCCCCCCCCC(=O)OC[C@@H](O)COP(=O)([O-])OCC[NH3+] [LPE(16:0/0:0)] | 206.89 Å² | – | collision cross section (N2) ([1]; [M+H]+): 213.91 Å²; collision cross section (N2) ([1]; [M+Na]+): 220.01 Å²
3 | CCCCCCC1CC1CCCCCCCC(=O)OC[C@@H](O)COP(=O)([O-])OCC[NH3+] (some centres not stated) [LPE(17:1/0:0)] | 208.15 Å² | – | collision cross section (N2) ([1]; [M+H]+): 212.27 Å²; collision cross section (N2) ([1]; [M+Na]+): 219.72 Å²
4 | CCCCCC/C=C/CCCCCCCC(=O)OC[C@@H](O)COP(=O)(O)OCC(O)CO (some centres not stated) [LPG(16:1)] | 210.68 Å² | – | –
5 | CCCCCCCCC1CC1CCCCCCCC(=O)O[C@H](CO)COP(=O)(O)OCC(O)CO (some centres not stated) [LPG(19:1)] | 220.89 Å² | – | –
6 | CCc1cccc(C)c1N(C(=O)CCl)C(C)COC (configuration not stated) [Metolachlor] | – | 158.23 Å² | collision cross section (N2) ([2]; [M+H]+): 161.46 Å²; collision cross section (N2) ([2]; [M+Na]+): 175.84 Å²
7 | CSc1nnc(C(C)(C)C)c(=O)n1N [Metribuzin] | – | 146.95 Å² | collision cross section (N2) ([2]; [M+H]+): 150.5 Å²; collision cross section (N2) ([2]; [M+Na]+): 171.27 Å²
8 | CCCCCC/C=C\CCCCCCCC(=O)OCC(COP(=O)(O)O)OC(=O)CCCCCCCCCCCCCCC (configuration not stated) [PA(32:1)] | 249.02 Å² | – | –
9 | CCCCCCCC/C=C\CCCCCCCC(=O)OC(COC(=O)CCCCCCCCCCCCCCC)COP(=O)(O)O (configuration not stated) [PA(34:1)] | 255.63 Å² | – | –
10 | CCCCCC/C=C\CCCCCCCC(=O)OCC(COP(=O)(O)O)OC(=O)CCCCCCC/C=C\CCCCCCCC (configuration not stated) [PA(34:2)] | 253.68 Å² | – | –
11 | CCCCCCCC/C=C\CCCCCCCC(=O)OCC(COP(=O)(O)O)OC(=O)CCCCCCC/C=C\CCCCCCCC (configuration not stated) [PA(36:2)] | 259.86 Å² | – | –
12 | CCCCCCCCCCCCCCCC(=O)OCC(COP(=O)(O)OCCN)OC(=O)CCCCCCCC1CC1CCCC (configuration not stated) [PE(31:1)] | 252.34 Å² | – | collision cross section (N2) ([1]; [M+H]+): 265.08 Å²
13 | CCCCCCCCCCCCCCCC(=O)OCC(COP(=O)(O)OCCN)OC(=O)CCCCCCCCCCCCCCC (configuration not stated) [PE(32:0)] | 257.29 Å² | – | collision cross section (N2) ([1]; [M+H]+): 272.49 Å²
14 | CCCCCC/C=C\CCCCCCCC(=O)OCC(COP(=O)(O)OCCN)OC(=O)CCCCCCCC1CC1CCCCCCCC (configuration not stated) [PE(35:2)] | 265.69 Å² | – | collision cross section (N2) ([1]; [M+H]+): 275.82 Å²
15 | Cc1ccnc(NS(=O)(=O)c2ccc(N)cc2)n1 [Sulfamerazine] | – | 154.8 Å² | –
16 | Cc1cc(NS(=O)(=O)c2ccc(N)cc2)no1 [Sulfamethoxazole] | – | 146.3 Å² | –
17 | Nc1ccc(S(=O)(=O)Nc2ccccn2)cc1 [Sulfapyridine] | – | 142.3 Å² | –
18 | Nc1ccc(S(=O)(=O)Nc2cnc3ccccc3n2)cc1 [Sulfaquinoxaline] | – | 164.8 Å² | –
19 | O=C(NC(=O)c1c(F)cccc1F)Nc1cc(Cl)c(F)c(Cl)c1F [Teflubenzuron] | – | 171.81 Å² | –
20 | CC/C(=N\OC/C=C/Cl)C1=C(O)CC(C2CCOCC2)CC1=O (configuration not stated) [Tepraloxydim] | – | 184.74 Å² | –
21 | FC(F)C(F)(F)OCC(Cn1cncn1)c1ccc(Cl)cc1Cl (configuration not stated) [Tetraconazole] | – | 174.34 Å² | –
22 | C=C[C@]1(C)C[C@@H](OC(=O)CSCCN(CC)CC)C2(C)C(C)CC[C@]3(CCC(=O)[C@@H]23)[C@@H](C)[C@@H]1O (some centres not stated) [Tiamulin] | – | 218.9 Å² | –
23 | CCOC(=O)C1CC(=O)C(=C(O)C2CC2)C(=O)C1 (configuration not stated) [Trinexapac-ethyl] | – | 152.92 Å² | –
24 | C=C[C@]1(C)C[C@@H](OC(=O)CSC(C)(C)CNC(=O)[C@H](N)C(C)C)[C@]2(C)[C@H](C)CC[C@]3(CCC(=O)[C@H]32)[C@@H](C)[C@@H]1O [Valnemulin] | – | 233.3 Å² | –

Source: the C3SDB collision cross section collection
